Measurements as given in patent publication US20020169128A1, “Erythropoietin ameliorates chemotherapy-induced toxicity in vivo” (priority 2001, published 2002).

Tests used:
[1] = tested on: C57B16 female mice; assay: Pulmonary function (Penh) by whole body plethysmography after graded methacholine challenge in mice treated with EPO and/or bleomycin; assay type: in vivo; conditions: treated twice a week for two weeks, i.p., FIG. 1
Procedure: C57B16 female mice between 7 and 12 weeks old weighing approximately 20 grams were treated with varying doses of EPO alone and in combination with bleomycin. Animals were treated twice a week with placebo, EPO alone (5-40 μg/mouse, i.p.), bleomycin alone (0.25-0.75 μg/mouse, i.p.), or EPO and bleomycin in combination. […] At these time points, pulmonary function was measured using a full body plethysmograph (Buxco, Niskayuna, N.Y.). This is a noninvasive method utilizing a clear plastic animal chamber fitted with two pneumotachs and a transducer which interface with a computer. Pulmonary resistance and dynamic compliance is evaluated by an analyzer which measures flow and pressure readings at equivalent lung volumes during inspiration and expiration (“Iso-Volumetric Method”). Artifacts from animal movement or atypical breaths (e.g. from “sniffing”) are ignored by computer analysis using parameters that can be adjusted as appropriate for the tidal volume and inspiratory time of the individual animal. The method of whole body plethysmography has been studied and found to be a valid index of pulmonary function in the mouse (Hamelmann et al., Am. J. Respir. Crit. Care Med. 156)3 Pt1) 776-75 (1997). […] A similar pattern of the Penh values was observed when pulmonary functions were performed at four weeks of treatment (see FIG. 2).

[2] = doses of up to 1,500 Units/kg for three to four weeks; cited from earlier work

Row | Substance | pulmonary function (Penh), EPO given in the absence of bleomycin ([1]; graded methacholine challenge) | toxic effects due to EPO itself [2] | worsening in Penh values compared with control animals ([1]; graded (0 to 48 mg/ml) methacholine challenge) [fold]
1 | erythropoietin [EPO] | slight enhancement of pulmonary function | without toxic effects | 
2 | bleomycin [reference compound] |  |  | 2.6
